Among the data in patent publication US20240245675A1, “PROTEIN SECRETION INHIBITORS” (Gate Bioscience, Inc., priority 2021, published 2024) are IC50 values, retold here.

The target in assay [1] is PRP Construct (signal peptide + 10 amino acids of Prion protein fused to HaloTag-HiBit) (Homo sapiens, UniProt P61619). Nature of the assay: cell-based.
The target of assay [2] is PDCD1 Construct (signal peptide + 10 amino acids of Programmed Cell Death Receptor 1 fused to HaloTag-HiBit) (Homo sapiens, UniProt P61619). As to the kind of experiment: HiBit assay, secretion of SP-HaloTag-HiBit fusion protein, PDCD1 construct. The settings on record: T-REx-293 cells, doxycycline-induced, Nano-Glo HiBiT Extracellular Detection. Type of assay: cell-based.
Chain of PDCD1 Construct (signal peptide + 10 amino acids of Programmed Cell Death Receptor 1 fused to HaloTag-HiBit) (P61619 whole entry, the tested form may be a part): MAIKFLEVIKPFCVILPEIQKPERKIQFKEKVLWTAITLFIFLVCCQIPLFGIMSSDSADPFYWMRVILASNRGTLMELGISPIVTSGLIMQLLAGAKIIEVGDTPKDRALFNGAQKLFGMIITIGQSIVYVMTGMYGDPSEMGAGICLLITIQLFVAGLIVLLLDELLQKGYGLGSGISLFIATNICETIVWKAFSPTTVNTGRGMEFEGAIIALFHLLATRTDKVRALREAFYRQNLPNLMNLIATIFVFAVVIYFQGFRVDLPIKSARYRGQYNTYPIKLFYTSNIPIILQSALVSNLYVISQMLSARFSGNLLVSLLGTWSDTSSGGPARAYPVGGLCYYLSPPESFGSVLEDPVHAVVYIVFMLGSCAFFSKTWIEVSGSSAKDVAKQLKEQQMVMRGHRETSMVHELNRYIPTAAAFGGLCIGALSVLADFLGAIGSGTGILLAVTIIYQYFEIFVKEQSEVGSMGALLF

Chain of PRP Construct (signal peptide + 10 amino acids of Prion protein fused to HaloTag-HiBit) (P61619 whole entry, looked up, the tested form may be a part): as the sequence (P61619 whole entry, the tested form may be a part) above

With `O=C(Nc1nc([C@H]2CCCN2c2ccccc2)cs1)OCCc1ccncc1` [Compound 1, 2-(pyridin-4-yl)ethyl (R)-(4-(1-phenylpyrrolidin-2-yl)thiazol-2-yl)carbamate], the IC50 in assay [1] was above 30 µM.

Consider `O=C(CCOc1ccncc1)Nc1nc([C@H]2CCCN2c2ccccc2)cs1` [Compound 2, (R)—N-(4-(1-phenylpyrrolidin-2-yl)thiazol-2-yl)-3-(pyridin-4-yloxy)propanamide], for which the IC50 in assay [1] is above 30 µM.

With `C[C@@H](OCc1ccncc1)C(=O)Nc1nc([C@H]2CCCN2c2ccccc2)cs1` [Compound 4, (R)—N-(4-((R)-1-phenylpyrrolidin-2-yl)thiazol-2-yl)-2-(pyridin-4-ylmethoxy)propanamide], the IC50 in assay [1] was in the range of 10 to 30 µM.

As to `C[C@H](OCc1ccncc1)C(=O)Nc1nc([C@H]2CCCN2c2ccccc2)cs1` [Compound 5, (S)—N-(4-((R)-1-phenylpyrrolidin-2-yl)thiazol-2-yl)-2-(pyridin-4-ylmethoxy)propanamide], the IC50 in assay [1] is 5 to 10 µM.

For the compound `CN(CCc1ccncc1)C(=O)Nc1nc([C@H]2CCCN2c2ccccc2)cs1` [Compound 6, (R)-1-methyl-3-(4-(1-phenylpyrrolidin-2-yl)thiazol-2-yl)-1-(2-(pyridin-4-yl)ethyl)urea], the IC50 in assay [1] is above 30 µM.

With `CC(CNc1ccncc1)C(=O)Nc1nc([C@H]2CCCN2c2ccccc2)cs1` (stereo partly drawn) [Compound 7, 2-methyl-N-(4-((R)-1-phenylpyrrolidin-2-yl)thiazol-2-yl)-3-(pyridin-4-ylamino)propanamide], in assay [1], the IC50 was 10 to 30 µM.

With `c1ccc(N2CCC[C@@H]2c2csc(Nc3ncccc3OCc3ccncc3)n2)cc1` [Compound 8, (R)-4-(1-phenylpyrrolidin-2-yl)-N-(3-(pyridin-4-ylmethoxy)pyridin-2-yl)thiazol-2-amine], the values for the IC50 in assay [2] and in assay [1] were 5 to 10 µM and below 5 µM, respectively.

In the case of `O=C(NCc1ccncc1)Nc1nc([C@H]2CCCN2c2ccccc2)cs1` [Compound 11, (R)-1-(4-(1-phenylpyrrolidin-2-yl)thiazol-2-yl)-3-(pyridin-4-ylmethyl)urea], in assay [1], the IC50 was above 30 µM.

For `O=C(c1ccccc1)c1ccc(Nc2nc([C@H]3CCCN3c3ccccc3)cs2)cc1` [Compound 13, (R)-phenyl(4-((4-(1-phenylpyrrolidin-2-yl)thiazol-2-yl)amino)phenyl)methanone], the IC50 in assay [1] was above 30 µM.

On to `CC(C)OC(C)(C)c1csc(NC(=O)[C@@H](C)OCc2ccncc2)n1` [Compound 14, (R)—N-(4-(2-isopropoxypropan-2-yl)thiazol-2-yl)-2-(pyridin-4-ylmethoxy)propanamide], for which the IC50 in assay [1] was above 30 µM.

In the case of `CC(C)OC(C)(C)c1csc(NC(=O)[C@H](C)OCc2ccncc2)n1` [Compound 15, (S)—N-(4-(2-isopropoxypropan-2-yl)thiazol-2-yl)-2-(pyridin-4-ylmethoxy)propanamide], the IC50 in assay [1] was above 30 µM.

As to `CC(C)OC(C)(C)c1csc(NC(=O)NCc2ccncc2)n1` [Compound 17, 1-(4-(2-isopropoxypropan-2-yl)thiazol-2-yl)-3-(pyridin-4-ylmethyl)urea], the IC50 in assay [1] is above 30 µM.

For the compound `CC(C)OC(C)(C)c1csc(NC(=O)Nc2ccccc2Oc2ccccc2)n1` [Compound 18, 1-(4-(2-isopropoxypropan-2-yl)thiazol-2-yl)-3-(2-phenoxyphenyl)urea], the IC50 in assay [1] was above 30 µM.

As to `CC(C)OC(C)(C)c1csc(NC(=O)N(C)Cc2ccncc2)n1` [Compound 19, 3-(4-(2-isopropoxypropan-2-yl)thiazol-2-yl)-1-methyl-1-(pyridin-4-ylmethyl)urea], the IC50 in assay [1] is above 30 µM.

Consider `CC(C)OC(C)(C)c1csc(NC(=O)N(C)CCc2ccncc2)n1` [Compound 20, 3-(4-(2-isopropoxypropan-2-yl)thiazol-2-yl)-1-methyl-1-(2-(pyridin-4-yl)ethyl)urea], for which, in assay [1], the half-maximal inhibitory concentration (IC50) is above 30 µM.

As to `CC(C)OC(C)(C)c1csc(NC(=O)OCCc2ccncc2)n1` [Compound 21, 2-(pyridin-4-yl)ethyl (4-(2-isopropoxypropan-2-yl)thiazol-2-yl)carbamate], in assay [1], the IC50 is above 30 µM.

Consider `CC(C)OC(C)(C)c1csc(Nc2ccc(C(=O)c3ccccc3)cc2)n1` [Compound 22, (4-((4-(2-isopropoxypropan-2-yl)thiazol-2-yl)amino)phenyl)(phenyl)methanone], for which the IC50 in assay [1] is above 30 µM.

As to `O=C(Nc1ccc(C(=O)c2ccccc2)cc1)Nc1nc([C@H]2CCCN2c2ccccc2)cs1` [Compound 23, (R)-1-(4-benzoylphenyl)-3-(4-(1-phenylpyrrolidin-2-yl)thiazol-2-yl)urea], the IC50 in assay [1] was above 30 µM.

Regarding `CC(C)OC(C)(C)c1csc(NC(=O)c2ccnn2CCc2ccncc2)n1` [Compound 24, N-(4-(2-isopropoxypropan-2-yl)thiazol-2-yl)-1-(2-(pyridin-4-yl)ethyl)-1H-pyrazole-5-carboxamide], the IC50 in assay [2] is above 30 µM.

For `CC(C)OC(C)(C)c1csc(Nc2nccc3ccn(Cc4ccncc4)c23)n1` [Compound 25, 4-(2-isopropoxypropan-2-yl)-N-(1-(pyridin-4-ylmethyl)-1H-pyrrolo[2,3-c]pyridin-7-yl)thiazol-2-amine], the results for the IC50 in assay [2] and in assay [1] were 5 to 10 µM and 10 to 30 µM, respectively.

For the compound `O=C(Nc1nc(-c2ccccc2)ns1)c1cccn1Cc1ccncc1` [Compound 37], the IC50 in assay [2] is below 5 µM; in assay [1], 5 to 10 µM.

Turning to `Cc1cccc(Nc2nc(-c3ccc(-c4cccnc4)cc3)cs2)n1` [Compound 38], the IC50 in assay [2] is above 30 µM.

With `CC(C)(C)c1csc(Nc2ncccc2CCc2ccncc2)n1` [Compound 39], in assay [1], the IC50 fell in the range of 10 to 30 µM.

For the compound `CC(C)(C)C1CNC(NC(=O)c2cccn2Cc2ccncc2)=N1` (centres unmarked) [Compound 43], the IC50 in assay [2] was below 5 µM; in assay [1], 5 to 10 µM.

Consider `CC(C)OC(C)(C)c1csc(NC(=O)c2nccn2CCc2ccncc2)n1` [Compound 44], for which the IC50 in assay [2] is above 30 µM.

For `Cc1ccc(Nc2nc(C3CCCN3Cc3cnc[nH]3)cs2)nc1` (centres unmarked) [Compound 45], the IC50 in assay [1] is above 30 µM.

On to `Cc1ccc(Nc2nc(C3CCCN3C)cs2)nc1` (centres unmarked) [Compound 46], for which the IC50 in assay [1] was above 30 µM.

On to `CN1CCCC1c1csc(Nc2ncccn2)n1` (centres unmarked) [Compound 47], for which the IC50 in assay [1] was above 30 µM.

As to `CN1CCN(c2nsc(NC(=O)c3cc(F)cn3Cc3ccncc3)n2)CC1` [Compound 48, 4-fluoro-N-(3-(4-methylpiperazin-1-yl)-1,2,4-thiadiazol-5-yl)-1-(pyridin-4-ylmethyl)-1H-pyrrole-2-carboxamide], in assay [2], the IC50 was above 30 µM.

In the case of `O=C(Nc1nc(/C=C/c2ccccc2)ns1)c1cc(F)cn1Cc1ccncc1` [Compound 49, (E)-4-fluoro-1-(pyridin-4-ylmethyl)-N-(3-styryl-1,2,4-thiadiazol-5-yl)-1H-pyrrole-2-carboxamide], the IC50 in assay [2] was below 5 µM.

Take `CC(C)(C)c1nsc(NC(=O)c2cccn2Cc2ccncc2)n1` [Compound 50]: the IC50 in assay [2] was below 5 µM.
